Experimental data taken from patent publication US4230702A, “Readily enterally absorbable pharmaceutical compositions of per se poorly enterally absorbable pharmacologically active agents” (priority 1978, dated 1980).
Like-named read-outs stand apart in the source and are kept apart here.

How the values were obtained:
[1] = Oral toxicity (LD50) of solutions in partial glycerides versus suspension in aqueous tylose; details: guinea pig, in vivo, female guinea pigs
Method: For testing the toxicity, solutions of g-strophanthin, proscillaridin A or medrogestone in various mixtures of mono-and diglycerides of long chain fatty acids and comparative formulations of the same pharmacologically active agents suspended in a tylose solution in water are administered orally to female guinea pigs of 250 to 300 g body weight by means of an oral feeding tube.

[2] = Blood (serum) level of benzarone, comparison of areas beneath the blood level curves; assay type: in vivo, rat; details: 1000 mg/kg oral, rats, solution in Rilanit GMO compared with aqueous suspension, up to 15 hours
Method: For determining the blood level values, a dose of 1000 mg/kg of benzarone in form of a solution in Rilanit GMO^4) and in form of a suspension in water are administered to rats by means of an oral feeding tube.
Subsequently every two hours including the 10th hour, 8 animals of each group, and after 15 hours, 4 more animals of each group are sacrificed and their blood is recovered by means of a cordial cut. The amount of benzarone in the serum is determined spectrophotometrically. The measured blood level values are plotted on a graph and the areas beneath the resulting blood level curves are compared.

[3] = Renal excretion of benzarone, comparison of areas beneath the curves; assay type: in vivo, rat; details: 1000 mg/kg oral, rats, solution in Rilanit GMO compared with aqueous suspension, 15 hours
Method: Furthermore doses of 1000 mg/kg of benzarone in the form of a solution in Rilanit GMO^4) and in form of a suspension in water are orally administered to rats by means of an oral feeding tube. The urine of the animals is collected every 2 hours over a period of 15 hours and the amount of the excreted benzarone therein is determined spectrophotometrically. The measured values are plotted on a graph and the areas beneath the resulting curves are compared.

[4] = Renal excretion of carbon-14 labelled progesterone, cumulative urinary 14C; assay type: in vivo, guinea pig; details: 20 mg/kg oral; for Cumulative Renal Excretion of Progesterone: guinea pigs
Method: For determining the renal excretion, a dose of 20 mg/kg of carbon-14 labelled progesterone in the form of solutions in various mixtures of partial glycerides of long chain fatty acids and a comparative formulation wherein the progesterone is suspended in an aqueous tylose solution are administered orally to female guinea pigs having an average body weight of about 300 g. The urine of the animals is collected every 24 hours and the ^14 C-content in equal amounts of the urine is determined. The cumulated amount of excreted material is shown in Table II below in % of the administered dose. The percentage of excreted material is about 83% for the solution of progesterone in Peceol.

[5] = solution in Peceol (mono, di, and triglycerides of oleic acid), read-out: LD50 in Peceol
[6] = suspended in tylose (methylcellulose) solution in water, read-out: LD50 in Tylose
[7] = solution in Witafrol 7470 (mono- and diglycerides of oleic acid), read-out: LD50 in Witafrol 7470

Question: What does the source list for `CC(=O)[C@@]1(C)CC[C@H]2[C@@H]3C=C(C)C4=CC(=O)CC[C@]4(C)[C@H]3CC[C@@]21C` [medrogestone]?
Answer: LD50 [1, 5]: 850 mg/kg; LD50 ([1]; solution in Rilanit GMO (mono- and diglycerides of oleic acid), read-out: LD50 in Rilanit GMO): 862 mg/kg; LD50 [1, 6]: 1470 mg/kg

Question: For `CCc1oc2ccccc2c1C(=O)c1ccc(O)cc1` [benzarone, 2-ethyl-3-(4-hydroxybenzoyl)benzofuran], which “increase of the concentration of benzarone in the serum (comparison of areas beneath blood level curves)” value [2] is on record?
Answer: 257%

Question: And the “increase of the renal excretion of benzarone (comparison of areas beneath the curves)” value [3]?
Answer: 437%

Question: Which results are given for `C[C@@H]1O[C@@H](O[C@@H]2C=C3CC[C@@H]4[C@H](CC[C@]5(C)[C@@H](c6ccc(=O)oc6)CC[C@]45O)[C@@]3(C)CC2)[C@H](O)[C@H](O)[C@H]1O` [proscillaridin A]?
Answer: LD50 [1, 5]: 7.77 mg/kg; LD50 [1, 7]: 6.81 mg/kg; LD50 [1, 6]: 12.3 mg/kg

Question: What does the source list for `CC(=O)[C@H]1CC[C@H]2[C@@H]3CCC4=CC(=O)CC[C@]4(C)[C@H]3CC[C@]12C` [progesterone]?
Answer: percentage of excreted material ([4]; female guinea pigs, 14C-progesterone, solution in Peceol, % of the administered dose): about 83%; amount of excreted material relative to the suspension in the tylose solution ([4]; female guinea pigs, solution in Peceol versus tylose suspension): about twice as high; Cumulative Renal Excretion of Progesterone ([4]; Peceol X1, 1. day): 46.0 % of the Administered Dose; Cumulative Renal Excretion of Progesterone ([4]; Peceol X1, 2. day): 64.6 % of the Administered Dose; Cumulative Renal Excretion of Progesterone ([4]; Peceol X1, 3. day): 71.6 % of the Administered Dose; Cumulative Renal Excretion of Progesterone ([4]; Peceol X1, 4. day): 76.1 % of the Administered Dose; Cumulative Renal Excretion of Progesterone ([4]; Peceol X1, 5. day): 79.1 % of the Administered Dose; Cumulative Renal Excretion of Progesterone ([4]; Peceol X1, 6. day): 81.1 % of the Administered Dose; Cumulative Renal Excretion of Progesterone ([4]; Peceol X1, 7. day): 82.9 % of the Administered Dose; Cumulative Renal Excretion of Progesterone ([4]; Softigen 701, 1. day): 51.6 % of the Administered Dose; Cumulative Renal Excretion of Progesterone ([4]; Softigen 701, 2. day): 63.2 % of the Administered Dose; Cumulative Renal Excretion of Progesterone ([4]; Softigen 701, 3. day): 66.2 % of the Administered Dose; Cumulative Renal Excretion of Progesterone ([4]; Softigen 701, 4. day): 66.9 % of the Administered Dose; Cumulative Renal Excretion of Progesterone ([4]; Softigen 701, 5. day): 67.4 % of the Administered Dose; Cumulative Renal Excretion of Progesterone ([4]; Softigen 701, 6. day): 67.6 % of the Administered Dose; Cumulative Renal Excretion of Progesterone ([4]; Softigen 701, 7. day): 67.7 % of the Administered Dose; Cumulative Renal Excretion of Progesterone ([4]; Tegin 0, 1. day): 37.9 % of the Administered Dose; Cumulative Renal Excretion of Progesterone ([4]; Tegin 0, 2. day): 48.7 % of the Administered Dose; Cumulative Renal Excretion of Progesterone ([4]; Tegin 0, 3. day): 51.6 % of the Administered Dose; Cumulative Renal Excretion of Progesterone ([4]; Tegin 0, 4. day): 52.3 % of the Administered Dose; Cumulative Renal Excretion of Progesterone ([4]; Tegin 0, 5. day): 52.6 % of the Administered Dose; Cumulative Renal Excretion of Progesterone ([4]; Tegin 0, 6. day): 52.8 % of the Administered Dose; Cumulative Renal Excretion of Progesterone ([4]; Tegin 0, 7. day): 52.9 % of the Administered Dose; Cumulative Renal Excretion of Progesterone ([4]; Tegomuls X10, 1. day): 42.5 % of the Administered Dose; Cumulative Renal Excretion of Progesterone ([4]; Tegomuls X10, 2. day): 58.3 % of the Administered Dose; Cumulative Renal Excretion of Progesterone ([4]; Tegomuls X10, 3. day): 69.2 % of the Administered Dose; Cumulative Renal Excretion of Progesterone ([4]; Tegomuls X10, 4. day): 75.2 % of the Administered Dose; Cumulative Renal Excretion of Progesterone ([4]; Tegomuls X10, 5. day): 78.8 % of the Administered Dose; Cumulative Renal Excretion of Progesterone ([4]; Tegomuls X10, 6. day): 80.6 % of the Administered Dose; Cumulative Renal Excretion of Progesterone ([4]; Tegomuls X10, 7. day): 81.9 % of the Administered Dose; Cumulative Renal Excretion of Progesterone ([4]; Tegomuls X17, 1. day): 43.7 % of the Administered Dose; Cumulative Renal Excretion of Progesterone ([4]; Tegomuls X17, 2. day): 55.0 % of the Administered Dose; Cumulative Renal Excretion of Progesterone ([4]; Tegomuls X17, 3. day): 62.0 % of the Administered Dose; Cumulative Renal Excretion of Progesterone ([4]; Tegomuls X17, 4. day): 66.6 % of the Administered Dose; Cumulative Renal Excretion of Progesterone ([4]; Tegomuls X17, 5. day): 70.0 % of the Administered Dose; Cumulative Renal Excretion of Progesterone ([4]; Tegomuls X17, 6. day): 71.9 % of the Administered Dose; Cumulative Renal Excretion of Progesterone ([4]; Tegomuls X17, 7. day): 73.9 % of the Administered Dose; Cumulative Renal Excretion of Progesterone ([4]; Tylose, 1. day): 29.7 % of the Administered Dose; Cumulative Renal Excretion of Progesterone ([4]; Tylose, 2. day): 39.1 % of the Administered Dose; Cumulative Renal Excretion of Progesterone ([4]; Tylose, 3. day): 43.0 % of the Administered Dose; Cumulative Renal Excretion of Progesterone ([4]; Tylose, 4. day): 44.0 % of the Administered Dose; Cumulative Renal Excretion of Progesterone ([4]; Tylose, 5. day): 44.5 % of the Administered Dose; Cumulative Renal Excretion of Progesterone ([4]; Tylose, 6. day): 46.2 % of the Administered Dose; Cumulative Renal Excretion of Progesterone ([4]; Tylose, 7. day): 46.4 % of the Administered Dose

Question: For `CC1OC(OC2CC(O)C3(CO)C4C(O)CC5(C)C(C6=CC(=O)OC6)CCC5(O)C4CCC3(O)C2)C(O)C(O)C1O` (stereo not shown) [g-strophanthin], which LD50 [1, 5] is on record?
Answer: 8.38 mg/kg

Question: What about the LD50 [1, 7] of the same molecule?
Answer: 8.28 mg/kg

Question: And the LD50 [1, 6]?
Answer: 34.8 mg/kg
